From patent US20130231307A1, “NOVEL ANTIVIRAL ACYCLIC NUCLEOSIDE PHOSPHONATES” (CENTRE NATIONAL DE LA RECHERCHE SCIENTIFIQUE, priority 2010, published 2013)
Read-outs that look alike come from different tables or passages of the source.

Tests used:
DNA viruses = format: cell-based
UMP-CMP kinase (hUCK) = target: T1, UMP-CMP kinase (hUCK) (Homo sapiens, UniProt P30085); details: cited from earlier work
T1 sequence (P30085 1-196): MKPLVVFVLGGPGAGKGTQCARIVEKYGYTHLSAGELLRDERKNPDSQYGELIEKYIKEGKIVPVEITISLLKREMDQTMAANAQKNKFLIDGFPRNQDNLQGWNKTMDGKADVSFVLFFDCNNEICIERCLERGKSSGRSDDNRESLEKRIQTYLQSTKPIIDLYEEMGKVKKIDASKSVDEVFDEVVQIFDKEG

[1] = in vivo; cited from earlier work
[2] = system: herpes simplex virus type 1 (HSV-1) (KOS)
[3] = system: thymidine kinase-deficient VZV strain 07/1
[4] = system: HSV-1 TK^− (KOS acyclovir resistant, ACV)

For `CC(C)(C)C(=O)OCOP(=O)(C/C=C\Cn1ccc(=O)[nH]c1=O)OCOC(=O)C(C)(C)C` [Ia2], the “antiviral activity, [Z] versus corresponding [E] isomers” value (DNA viruses; HEL cell cultures) was “clearly less, or not antivirally active”.
In the case of `Nc1ccn(C[C@@H](CO)OCP(=O)(O)O)c(=O)n1` [cidofovir], the “substrate for hUCK” value (UMP-CMP kinase (hUCK)) is given as “not a substrate for hUCK”.
In the case of `CC(C)(C)C(=O)OCOP(=O)(C/C=C\Cn1cc(Br)c(=O)[nH]c1=O)OCOC(=O)C(C)(C)C` [Ie2, (Z)—N^1-(4′-bis(POM)-phosphinyl-2′-butenyl)-5-bromo-uracil], the “antiviral activity, [Z] versus corresponding [E] isomers” value (DNA viruses) is reported as “clearly less, or not antivirally active”.
In the case of `Nc1ncnc2c1ncn2CCOCP(=O)(O)OP(=O)(O)OP(=O)(O)O` [PMEA-PP], the “half-life in the body” value [1] is given as greater than 15 H.
For `CC(C)(C)C(=O)OCOP(=O)(C/C=C/Cn1cc(Br)c(=O)[nH]c1=O)OCOC(=O)C(C)(C)C` [Ie1, (E)-N^1-(4′-bis(POM)-phosphinyl-2′-butenyl)-5-bromo-uracil], the “inhibitory activity against VZV” value (VZV strain OKA) was “most inhibitory”, the “inhibitory activity against HSV-1” value [2] was “most inhibitory” and the “inhibitory activity against HSV-2” value (HSV-2 (G)) was “most inhibitory”. The “antiviral activity against mutant TK-deficient VZV TK” value [3] was “pronounced antiviral activity” and the “antiviral activity against mutant TK-deficient HSV-1 TK^−” value [4] was “pronounced antiviral activity”.
